Literature values, collected in patent publication US20040096420A1, “Compositions and methods for treating baldness” (priority 2000, published 2004).

Tested on: genetic hair loss
Settings: dosages from 75 to 100 mg per day; Rushton and Ramsay, 1992; Rushton et al. 1991

Compound: CC(=O)S[C@@H]1CC2=CC(=O)CC[C@]2(C)[C@H]2CC[C@@]3(C)[C@@H](CC[C@@]34CCC(=O)O4)[C@H]12 [spironolactone]
- benefit in hair loss: some benefit
